Source: PubChem BioAssay AID330 (DTP/NCI, 2004)
Values joined by “and” are separate entries in the source; they are usually repeats but may differ in a detail not shown here. Equal values may be shown once. Inconclusive results and toxic doses are left out. The calls were made as follows: active = survival T/C of 150% or more; inactive = T/C below 125% in these data. Peptide text beside a SMILES is read from it. * marks the point of attachment. Cbz = O=C(OCc1ccccc1)*

Tested on: P388 leukemia ip, CD2F1 mice, survival T/C
Assay: NCI In Vivo Anticancer Drug Screen. Data for tumor model P388 Leukemia (intraperitoneal) in CD2F1 (CDF1) mice
Settings: endpoint: median survival time, higher = longer survival
Summary of the method: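 Mice carrying the transplanted tumor received test compound or vehicle. Survival was recorded in each group, and the value is the treated-group measurement divided by that of the vehicle-treated control group.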

[1] = dose: 25.0 mg/kg/injection, schedule: Q01DX005 (ip), vehicle: saline
[2] = dose: 50.0 mg/kg/injection, schedule: Q01DX005 (ip), vehicle: saline
[3] = dose: 50.0 mg/kg/injection, schedule: Q01DX009 (ip), vehicle: saline
[4] = dose: 100.0 mg/kg/injection, schedule: Q01DX009 (ip), vehicle: saline
[5] = dose: 200.0 mg/kg/injection, schedule: Q01DX009 (ip), vehicle: saline
[6] = dose: 60.0 mg/kg/injection, schedule: Q01DX005 (ip), vehicle: Klucel (hydroxypropylcellulose) (HPC)
[7] = dose: 120.0 mg/kg/injection, schedule: Q01DX005 (ip), vehicle: Klucel (hydroxypropylcellulose) (HPC)
[8] = dose: 240.0 mg/kg/injection, schedule: Q01DX005 (ip), vehicle: Klucel (hydroxypropylcellulose) (HPC)
[9] = dose: 50.0 mg/kg/injection, schedule: Q01DX005 (ip), vehicle: Klucel (hydroxypropylcellulose) (HPC)
[10] = dose: 50.0 mg/kg/injection, schedule: Q01DX009 (ip), vehicle: Klucel (hydroxypropylcellulose) (HPC)
[11] = dose: 100.0 mg/kg/injection, schedule: Q01DX009 (ip), vehicle: Klucel (hydroxypropylcellulose) (HPC)
[12] = dose: 200.0 mg/kg/injection, schedule: Q01DX009 (ip), vehicle: Klucel (hydroxypropylcellulose) (HPC)
[13] = dose: 50.0 mg/kg/injection, schedule: Q01DX005 (ip), vehicle: saline with Tween-80
[14] = dose: 100.0 mg/kg/injection, schedule: Q01DX005 (ip), vehicle: saline with Tween-80
[15] = dose: 200.0 mg/kg/injection, schedule: Q01DX005 (ip), vehicle: saline with Tween-80
[16] = dose: 100.0 mg/kg/injection, schedule: Q01DX005 (ip), vehicle: Klucel (hydroxypropylcellulose) (HPC)
[17] = dose: 200.0 mg/kg/injection, schedule: Q01DX005 (ip), vehicle: Klucel (hydroxypropylcellulose) (HPC)

Measured: T/C

CNC(C(=O)OC(C)(C)C)C(C)C (configuration not stated)
inactive: [1] 98 % of control | [2] 99 % of control | dose: 100.0 mg/kg/injection, schedule: Q01DX005 (ip), vehicle: saline 99 % of control

O=C(O)CCc1cccc(O)c1
inactive: dose: 25.0 mg/kg/injection, schedule: Q01DX009 (ip), vehicle: saline 110 % of control | [3] 101 % of control | [4] 103 % of control | [5] 95 % of control

CCCOC(=O)C(F)C(Br)C(=O)OCCC (configuration not stated)
inactive: dose: 25.0 mg/kg/injection, schedule: Q01DX009 (ip), vehicle: saline with Tween-80 100 % of control and 107 % of control | dose: 50.0 mg/kg/injection, schedule: Q01DX009 (ip), vehicle: saline with Tween-80 105 % of control and 120 % of control | dose: 100.0 mg/kg/injection, schedule: Q01DX009 (ip), vehicle: saline with Tween-80 111 % of control and 118 % of control | dose: 200.0 mg/kg/injection, schedule: Q01DX009 (ip), vehicle: saline with Tween-80 123 % of control

CN(C)P(=O)(N=S=NC(C)(C)C)N(C)C
inactive: [3] 109 % of control | [4] 115 % of control

O=C(O)/C=C(/CC(=O)O)c1ccc(O)cc1
inactive: [6] 97 % of control | [7] 102 % of control | [8] 100 % of control

O=C1CSc2cc(F)ccc2N1
inactive: [3] 91 % of control | [4] 91 % of control | [5] 97 % of control

O=C(CBr)Nc1ccc(Cc2ccc(NC(=O)CBr)cc2)cc1
inactive: dose: 100.0 mg/kg/injection, schedule: Q01DX001 (ip), vehicle: saline with Tween-80 99 % of control | dose: 200.0 mg/kg/injection, schedule: Q01DX001 (ip), vehicle: saline with Tween-80 93 % of control | dose: 400.0 mg/kg/injection, schedule: Q01DX001 (ip), vehicle: saline with Tween-80 94 % of control

Cc1ccc(NC(=S)SCc2ccc(Cl)c(Cl)c2)cc1Br
inactive: [3] 113 % of control | [4] 100 % of control | [5] 90 % of control | dose: 200.0 mg/kg/injection, schedule: Q01DX009 (ip), vehicle: suspension in saline 95 % of control

O=C1c2ccccc2C(=O)c2c(NCCO)ccc(NCCO)c21
inactive: dose: 25.0 mg/kg/injection, schedule: Q04DX002 (ip), vehicle: saline with Tween-80 96 % of control | dose: 50.0 mg/kg/injection, schedule: Q04DX002 (ip), vehicle: saline with Tween-80 91 % of control | dose: 100.0 mg/kg/injection, schedule: Q04DX002 (ip), vehicle: saline with Tween-80 95 % of control | dose: 200.0 mg/kg/injection, schedule: Q04DX002 (ip), vehicle: saline with Tween-80 90 % of control

NCC[Se][Se]CCN
inactive: dose: 1.56 mg/kg/injection, schedule: Q01DX009 (ip), vehicle: saline 98 % of control | dose: 3.12 mg/kg/injection, schedule: Q01DX009 (ip), vehicle: saline 98 % of control | dose: 6.25 mg/kg/injection, schedule: Q01DX009 (ip), vehicle: saline 104 % of control

O=S(=O)(F)c1nc(Cl)c2[nH]cnc2n1
inactive: dose: 12.5 mg/kg/injection, schedule: Q01DX005 (ip), vehicle: Klucel (hydroxypropylcellulose) (HPC) 106 % of control | dose: 25.0 mg/kg/injection, schedule: Q01DX005 (ip), vehicle: Klucel (hydroxypropylcellulose) (HPC) 114 % of control | [9] 110 % of control and 114 % of control

C=CCSc1nc2ccc(NCn3c(=S)sc4ccccc43)cc2s1
inactive: dose: 100.0 mg/kg/injection, schedule: Q04DX003 (ip), vehicle: Klucel (hydroxypropylcellulose) (HPC) 89 % of control | dose: 200.0 mg/kg/injection, schedule: Q04DX003 (ip), vehicle: Klucel (hydroxypropylcellulose) (HPC) 89 % of control | dose: 400.0 mg/kg/injection, schedule: Q04DX003 (ip), vehicle: Klucel (hydroxypropylcellulose) (HPC) 89 % of control

Cc1cccc(-n2c(=O)c3[nH]c4ccccc4sc=3c2=O)c1
inactive: dose: 60.0 mg/kg/injection, schedule: Q01DX005 (ip), vehicle: saline with Tween-80 104 % of control | dose: 120.0 mg/kg/injection, schedule: Q01DX005 (ip), vehicle: saline with Tween-80 107 % of control | dose: 240.0 mg/kg/injection, schedule: Q01DX005 (ip), vehicle: saline with Tween-80 92 % of control

OC1(CC2CO2)CCCc2ccccc21 (configuration not stated)
inactive: [10] 93 % of control | [11] 91 % of control | [12] 93 % of control

CO/N=C1/OC(=O)OCC1(c1ccccc1)c1ccccc1
inactive: [13] 100 % of control | [14] 104 % of control | [15] 100 % of control

CC1(C)O[C@H]2CC(=O)OC[C@@]23[C@H]1CC(=O)[C@@]1(C)C2=CCC(c4ccoc4)[C@]2(C)CC[C@@H]13 (some centres not stated)
inactive: dose: 3.12 mg/kg/injection, schedule: Q01DX005 (ip), vehicle: distilled water + Tween-80 95 % of control | dose: 6.25 mg/kg/injection, schedule: Q01DX005 (ip), vehicle: distilled water + Tween-80 99 % of control | dose: 12.5 mg/kg/injection, schedule: Q01DX005 (ip), vehicle: distilled water + Tween-80 102 % of control | dose: 25.0 mg/kg/injection, schedule: Q01DX005 (ip), vehicle: distilled water + Tween-80 116 % of control | dose: 50.0 mg/kg/injection, schedule: Q01DX005 (ip), vehicle: distilled water + Tween-80 92 % of control

CCCCN1C(=O)[C@@H]2[C@H](c3ccccc3O)C(c3ccccc3O)[C@@H]2C1=O (some centres not stated)
inactive: [6] 100 % of control | [7] 92 % of control | [8] 100 % of control

CC(C)(C)OC(=O)NC(Cc1ccc(OCc2c(Cl)cccc2Cl)cc1)C(=O)O (configuration not stated)
inactive: [13] 104 % of control | [14] 100 % of control | [15] 100 % of control

O=S1(=O)CCN(C2CCCC2)CC1
inactive: dose: 25.0 mg/kg/injection, schedule: Q01DX009 (ip), vehicle: Klucel (hydroxypropylcellulose) (HPC) 94 % of control | [10] 93 % of control and 95 % of control | [11] 92 % of control and 95 % of control | [12] 99 % of control and 94 % of control

CC1(c2ccccc2)NC(=O)N(Sc2ccccc2)C1=O (configuration not stated)
inactive: [9] 111 % of control | [16] 113 % of control | [17] 107 % of control

CC(C)C(=O)CP(=O)(O)O
inactive: [3] 106 % of control | [4] 101 % of control | [5] 108 % of control

CN(C)c1ccc(C2c3cc4c(cc3OC3(N5CCCC5)CCCCC23)OCO4)cc1 (configuration not stated)
inactive: [6] 95 % of control | [7] 97 % of control | [8] 89 % of control

CCCSCCCC(=O)O
inactive: [10] 100 % of control | [11] 100 % of control | [12] 104 % of control

Cc1cc[n+](CCc2c[nH]c3ccccc23)cc1C
inactive: dose: 12.5 mg/kg/injection, schedule: Q01DX005 (ip), vehicle: saline 100 % of control | [1] 97 % of control | [2] 105 % of control and 95 % of control

COC(=O)C(CO)NC(=O)C(NC(=O)OCc1ccccc1)C(C)O (stereo not drawn) (Cbz-Thr-Ser-OMe; configuration not given here)
inactive: [9] 118 % of control | [16] 101 % of control | [17] 108 % of control

C[S+](CCSc1ccccc1)CCSc1ccccc1
inactive: dose: 7.5 mg/kg/injection, schedule: Q01DX009 (ip), vehicle: saline with Tween-80 90 % of control | dose: 15.0 mg/kg/injection, schedule: Q01DX009 (ip), vehicle: saline with Tween-80 101 % of control | dose: 30.0 mg/kg/injection, schedule: Q01DX009 (ip), vehicle: saline with Tween-80 99 % of control

COc1cc2ccccc2c2cc([N+](=O)[O-])oc12
inactive: [9] 110 % of control | [16] 101 % of control | [17] 110 % of control
